Results: US9550782B2, “Compounds and methods for treating diabetes” (Medivation Technologies, Inc., priority 2011, dated 2017)
Several values for one entry are separate records, joined by “and”; a condition that tells them apart may be missing. Identical values can stand only once.

Columns and labels:
[1] = molecular target: T1, human recombinant adrenergic α2B receptor (Homo sapiens, UniProt P18089); assay: Radioligand binding, adrenergic α2B ([3H]Rauwolscine); conditions: repeat datapoints each shown; for Percentage inhibition of ligand binding, Adrenergic α2B (0.03 μM): compound at 0.03 μM
T1 construct: expressed in transfected cells; host or cells: CHO-K1
T1 sequence (P18089 1-450): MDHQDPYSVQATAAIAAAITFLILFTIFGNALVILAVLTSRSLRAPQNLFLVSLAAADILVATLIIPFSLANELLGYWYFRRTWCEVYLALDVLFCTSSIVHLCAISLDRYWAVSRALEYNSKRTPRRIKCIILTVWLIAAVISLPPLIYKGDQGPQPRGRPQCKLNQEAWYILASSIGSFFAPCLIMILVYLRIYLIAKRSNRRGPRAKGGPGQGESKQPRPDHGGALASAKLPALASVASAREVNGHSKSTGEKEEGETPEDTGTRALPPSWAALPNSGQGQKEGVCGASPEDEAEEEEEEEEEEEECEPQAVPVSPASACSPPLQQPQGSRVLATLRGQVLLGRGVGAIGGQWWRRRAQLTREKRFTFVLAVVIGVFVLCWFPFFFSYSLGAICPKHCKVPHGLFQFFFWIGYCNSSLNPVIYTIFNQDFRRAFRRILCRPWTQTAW
Experimental: To evaluate in radioligand binding assays the activity of compounds of the invention, human recombinant adrenergic α2B receptor expressed in Chinese hamster ovary (CHO) K1 cells (Uhlen, S. et al, Eur. J. Pharmacol. 343(1):93, 1998) in a modified Tris-HCl buffer (50 mM Tris-HCl, pH 7.4, 12.5 mM MgCl2, 1 mM EDTA, 0.2% BSA) was used. Compounds of the invention were incubated with 2.5 nM [3H]Rauwolscine for 60 min at 25° C. Non-specific binding was estimated in the presence of 10 μM Prazosin. Receptor proteins were filtered and washed, the filters were then counted to determine [3H]Rauwolscine specifically bound. […] Compounds of the invention were tested in this biochemical assay and percent inhibition of specific binding was determined. Biochemical assay results are presented as the percent inhibition of specific binding in Table B1.

[2] = molecular target: T2, rat adrenergic α1B receptor (Rattus norvegicus, UniProt P15823); assay: Radioligand binding, adrenergic α1B ([3H]Prazosin); design: species or system Wistar Rat; conditions: repeat datapoints each shown; for Percentage inhibition of ligand binding, Adrenergic α1B (0.1 μM): compound at 0.1 μM; for Percentage inhibition of ligand binding, Adrenergic α1B (0.03 μM): compound at 0.03 μM
T2 construct: rat adrenergic α1B receptor obtained from Wistar Rat liver; from tissue; host or cells: Wistar rat liver
T2 sequence (P15823 1-515): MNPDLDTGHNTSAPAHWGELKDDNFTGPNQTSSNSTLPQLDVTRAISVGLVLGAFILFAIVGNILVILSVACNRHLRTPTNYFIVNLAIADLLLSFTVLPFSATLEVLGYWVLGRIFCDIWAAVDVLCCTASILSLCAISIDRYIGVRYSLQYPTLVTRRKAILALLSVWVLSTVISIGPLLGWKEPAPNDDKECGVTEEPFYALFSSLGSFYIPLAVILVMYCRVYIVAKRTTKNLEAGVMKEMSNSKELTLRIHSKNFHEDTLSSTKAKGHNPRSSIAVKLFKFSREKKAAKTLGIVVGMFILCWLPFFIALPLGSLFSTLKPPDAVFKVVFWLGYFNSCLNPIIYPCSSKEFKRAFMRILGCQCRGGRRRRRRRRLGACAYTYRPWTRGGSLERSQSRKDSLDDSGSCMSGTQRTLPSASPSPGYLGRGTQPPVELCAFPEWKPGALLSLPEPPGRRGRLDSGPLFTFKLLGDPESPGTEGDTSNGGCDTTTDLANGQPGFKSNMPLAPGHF
Experimental: To evaluate in radioligand binding assays the activity of compounds of the invention, rat adrenergic α1B receptor obtained from Wistar Rat liver (Garcia-S'ainz, J. et al, Biochem. Biophys. Res. Commun. 186:760, 1992; Michel, A. et al, Br. J. Pharmacol. 98:883, 1989) in a modified Tris-HCl buffer (50 mM Tris-HCl buffer, pH 7.4, 0.5 mM EDTA) was used. Compounds of the invention were incubated with 0.25 nM [^3H]Prazosin for 60 min at 25° C. Non-specific binding was estimated in the presence of 10 μM phentolamine. Receptor proteins were filtered and washed, the filters were then counted to determine [^3H]Prazosin specifically bound. […] Compounds of the invention were tested in this biochemical assay and percent inhibition of specific binding was determined. Biochemical assay results are presented as the percent inhibition of specific binding in Table B1.

[3] = molecular target: T3, human recombinant adrenergic α2A receptor (Homo sapiens, UniProt P08913); assay: Radioligand binding, adrenergic α2A ([3H]MK-912); conditions: [3H]MK-912, repeat datapoints each shown; for Percentage inhibition of ligand binding, Adrenergic α2A (0.1 μM): compound at 0.1 μM; for Percentage inhibition of ligand binding, Adrenergic α2A (0.03 μM): compound at 0.03 μM
T3 construct: expressed in transfected cells; host or cells: insect Sf9 cells
T3 sequence (P08913 1-465): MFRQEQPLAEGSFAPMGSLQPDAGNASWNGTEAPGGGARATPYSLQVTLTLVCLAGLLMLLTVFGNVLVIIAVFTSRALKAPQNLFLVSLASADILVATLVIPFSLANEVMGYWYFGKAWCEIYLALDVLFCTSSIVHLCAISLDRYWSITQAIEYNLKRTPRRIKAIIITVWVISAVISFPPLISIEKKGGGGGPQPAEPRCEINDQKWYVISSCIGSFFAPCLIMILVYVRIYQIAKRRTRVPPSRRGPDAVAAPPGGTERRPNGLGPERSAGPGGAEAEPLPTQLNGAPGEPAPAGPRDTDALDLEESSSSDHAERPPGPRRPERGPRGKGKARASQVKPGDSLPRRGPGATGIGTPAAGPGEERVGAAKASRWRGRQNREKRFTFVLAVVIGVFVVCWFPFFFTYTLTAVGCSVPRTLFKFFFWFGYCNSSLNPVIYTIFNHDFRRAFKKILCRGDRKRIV
Experimental: To evaluate in radioligand binding assays the activity of compounds of the invention, human recombinant adrenergic α2A receptor expressed in insect Sf9 cells (Uhlen, S. et al, J. Pharmacol. Exp. Ther. 271:1558, 1994) in a modified Tris-HCl buffer (50 mM Tris-HCl, pH 7.4, 12.5 mM MgCl2, 2 mM EDTA) was used. Compounds of invention were incubated with 1 nM [^3H]MK-912 for 60 min at 25° C. MK912 is (2S-trans)-1,3,4,5′,6,6′,7,12b-octahydro-1′,3′-dimethyl-spiro[2H-benzofuro[2,3-a]quinolizine-2,4′(1′H)-pyrimidin]-2′(3′H)-one hydrochloride. Non-specific binding was estimated in the presence of 10 μM WB-4101 (2-(2,6-Dimethoxyphenoxyethyl)aminomethyl-1,4-benzodioxane hydrochloride). Receptor proteins were filtered and washed, the filters were then counted to determine [^3H]MK-912 specifically bound. […] Compounds of the invention were tested in this biochemical assay and percent inhibition of specific binding was determined. Biochemical assay results are presented as the percent inhibition of specific binding in Table B1.

| SMILES | Percentage inhibition of ligand binding, Adrenergic α2B (0.03 μM) [1] | Percentage inhibition of ligand binding, Adrenergic α1B (0.1 μM) ([2]; 0.1 µM) | Percentage inhibition of ligand binding, Adrenergic α2A (0.1 μM) [3] | Percentage inhibition of ligand binding, Adrenergic α2B (0.1 μM) ([1]; compound at 0.1 μM, 0.1 µM) | Percentage inhibition of ligand binding, Adrenergic α1B (0.03 μM) [2] | Percentage inhibition of ligand binding, Adrenergic α2A (0.03 μM) [3] | Percentage inhibition of ligand binding, Adrenergic α1B (0.1 μM) [2] |
| --- | --- | --- | --- | --- | --- | --- | --- |
| Cc1ccc2c(c1)c1c(n2CC(O)c2ccncc2)CC2CCCCN2C1 (racemic) [75a] | 77% | 61% | 11% | – | – | – | – |
| Cc1ccc2c(c1)c1c(n2CC(O)c2ccncc2)CC2CCCCN2C1 (racemic) [75b] | 43% | 16% | 5% | – | – | – | – |
| Cc1ccc2c(c1)c1c(n2CC(O)c2ccncc2)CC2CCCCN2C1 (racemic) [75c] | 11% | 59% | −2% | – | – | – | – |
| Cc1ccc2c(c1)c1c(n2CC(O)c2ccncc2)CC2CCCCN2C1 (racemic) [75d] | 102% | 26% | 49% | – | – | – | – |
| CN1CCc2c(c3cc(Cl)ccc3n2CC(O)c2ccncc2)C1 (single isomer, unassigned) [4a] | 99% and 103% | 52% and 57% | 19% and 24% | 104% | 25% | 5% | – |
| CN1CCc2c(c3cc(Cl)ccc3n2CC(O)c2ccncc2)C1 (single isomer, unassigned) [4b] | 46% | 58% | 7% | – | – | – | – |
| CN1CCc2c(c3cc(Cl)ccc3n2CC(O)c2cccnc2)C1 (single isomer, unassigned) [7a] | 59% | 28% | 1% | – | – | – | – |
| CN1CCc2c(c3cc(Cl)ccc3n2CC(O)c2cccnc2)C1 (single isomer, unassigned) [7b] | 74% | 37% | 25% | – | – | – | – |
| Cc1ccc2c(c1)c1c(n2CC(O)c2cccnc2)CCN(CCO)C1 (single isomer, unassigned) [21a] | −2% | 5% | −1% | – | – | – | – |
| Cc1ccc2c(c1)c1c(n2CC(O)c2cccnc2)CCN(CCO)C1 (single isomer, unassigned) [21b] | 1% | −2% | −3% | – | – | – | – |
| Cc1ccc2c(c1)c1c(n2CC(O)c2ccccn2)CN(C)CC1 (single isomer, unassigned) [22a] | 22% | 19% | 16% | – | – | – | – |
| Cc1ccc2c(c1)c1c(n2CC(O)c2ccccn2)CN(C)CC1 (single isomer, unassigned) [22b] | 30% | 9% | 0% | – | – | – | – |
| Cc1ccc2c(c1)c1c(n2CC(C)(O)c2cccnc2)CCNC1 (single isomer, unassigned) [24a] | 63% | – | 8% | – | – | – | 8% |
| Cc1ccc2c(c1)c1c(n2CC(C)(O)c2cccnc2)CCNC1 (single isomer, unassigned) [24b] | 29% | – | 15% | – | – | – | 8% |
| Cc1cnc2c(c1)c1c(n2CC(C)(O)c2cccnc2)CCN2CCCC12 (single isomer, unassigned) [26c] | 1% and 7% | 1% | 19% | – | – | – | – |
| Cc1cnc2c(c1)c1c(n2CC(C)(O)c2cccnc2)CCN2CCCC12 (single isomer, unassigned) [26d] | 6% and 11% | −2% | 0% | – | – | – | – |
| CN1CCc2c(n(CC(C)(O)c3cccnc3)c3ccc(Cl)cc23)C1 (single isomer, unassigned) [28a] | 96% | 41% | 28% | – | – | – | – |
| CN1CCc2c(n(CC(C)(O)c3cccnc3)c3ccc(Cl)cc23)C1 (single isomer, unassigned) [28b] | 37% | 20% | 24% | – | – | – | – |
| Cc1ccc2c(c1)c1c(n2CC(C)(O)c2ccc(C)nc2)CCN(C)C1 (single isomer, unassigned) [29a] | 98% and 100% | 32% and 38% | 35% and 39% | – | 19% | 16% | – |
